Test results taken from patent US8518956B2, “1-(1-(2-ethoxyethyl)-3-ethyl-7-(4-methylpyridin-2-ylamino)-1H-pyrazolo[4,3-d]pyrimidin-5-yl) piperidine-4-carboxylic acid and salts thereof” (priority 2005, dated 2013).

biological target: T1, PDE5 enzyme (Homo sapiens, UniProt O76074); assay: Method 1: Human Platelet PDE5 Enzyme Inhibition Scintillation Proximity Assay; format: biochemical; details: METHOD 1: PDE5 IC50, Table B, WO2004096810 examples
T1 construct: The PDE5 enzyme isolated from human platelets; from tissue; host or cells: human platelets
Description: Method 1: Human Platelet PDE5 Enzyme Inhibition Scintillation Proximity Assay
An in vitro assay can be used to evaluate the inhibition of PDE5 enzyme activity by a test compound.
The PDE5 enzyme for use in the assay can be obtained from human platelets by appropriate modification of the method of Thompson, W J et al.; Biochemistry 18(23), 5228-5237, 1979, as described by Ballard S A et al.; J. Urology 159(6), 2164-2171, 1998. The PDE5 enzyme isolated from human platelets can be used to catalyze the hydrolysis of [^3H]cGMP (Amersham Biosciences) to 5′ nucleotide [^3H]GMP. The [^3H]GMP binds to yttrium silicate SPA beads (Amersham Biosciences) and is detected by scintillation counting. More specifically, the effect of the test compound at different concentrations can be evaluated in the assay by contacting the compound with a fixed amount of PDE5 enzyme in the presence of substrate (cGMP or cAMP in a 3:1 ratio unlabelled to [^3H]-labeled). Scintillation counting can be used as described above to determine relative PDE5 enzyme activity. The inhibition of PDE5 enzyme activity is then calculated relative to total PDE5 enzyme activity of uninhibited controls.
PDE5 IC50 Assay: 96-well microtiter plate format
• Buffer A: 20 mM Tris-HCl, 5 mM MgCl2, pH 7.4 • Buffer B: 2 mg/ml BSA in Buffer A (enzyme buffer) • cGMP substrate: Final concentration of 500 nM in assay The amount of ^3H-labeled substrate added depends upon the specific activity of [^3H]cGMP, and the cGMP substrate is diluted with a 10 mM stock of cold cGMP in Buffer A for a final substrate concentration of 500 nM in the assay. • PDE enzyme: Prepared in Buffer B. The dilution factor is determined by enzyme activity. • SPA beads: 20 mg/ml suspension prepared in dH2O.
Stocks of standard and test compounds are prepared at 5 mM in 100% DMSO. The compound is serially diluted in a dilution plate using a 10-point ½ log dilution format. 2 μl of the compound dilution is added in duplicate to the wells of the assay plate. 2 μl of 100% DMSO are added to designated control wells. 25 μl of Buffer A are added to all wells. 25 μl of Buffer B are added to the negative control wells. 25 μl of enzyme are added to the remaining wells. 50 μl of substrate are added to each well. Plates are sealed and incubated for 60 minutes on a plate shaker at 30 C. 50 plof SPA beads are added to stop the reaction. The plates are again sealed and shaken for 15 minutes to allow the beads to bind the GMP product. The beads are allowed to settle for 30 minutes and then read on a NXT TopCount scintillation counter. Data are analyzed with a curve fitting application for plate-based screening. Percent inhibition in this assay is calculated as follows: Inhibition (%)=[(mean maximum−compound value/(mean maximum−mean minimum)]×100.
The IC50 value is determined from sigmoid dose-response curves of enzyme activity versus compound concentration.

| IC50 [nM] | Structure (SMILES) |
| --- | --- |
| 43.8 | CCOCCn1nc(CC)c2nc(N3CC(N)C3)nc(Nc3ccncn3)c21 [WO2004096810 Example 3] |
| 8.84 | CCCOCCn1nc(C)c2nc(N3CCN[C@H](C)C3)nc(Nc3cc(C)ccn3)c21 [WO2004096810 Example 4] |
| 6.03 | CCCOCCn1nc(C)c2nc(N3CCN[C@H](C)C3)nc(Nc3ccc(C)cn3)c21 [WO2004096810 Example 7] |
| 6.95 | COCCn1nc(C(C)C)c2nc(N3CCN[C@H](C)C3)nc(Nc3ccc(C)cn3)c21 [WO2004096810 Example 8] |
| 508 | Cc1ccc(Nc2nc(N3CCN[C@H](C)C3)nc3c(C)nn(C(C)C)c23)nc1 [WO2004096810 Example 9] |
| 0.29 | CCOCCn1nc(C)c2nc(N3CCN[C@H](C)C3)nc(Nc3ccncn3)c21 [WO2004096810 Example 11] |
| 1.74 | CCOCCn1nc(C)c2nc(N3CCN[C@@H](C)C3)nc(Nc3ccncn3)c21 [WO2004096810 Example 12] |
| 19.1 | CCOCCn1nc(C)c2nc(N3CCN[C@H](C(C)C)C3)nc(Nc3ccncn3)c21 [WO2004096810 Example 13] |
| 42.1 | CCOCCn1nc(C)c2nc(N3CCN[C@@H](C(C)C)C3)nc(Nc3ccncn3)c21 [WO2004096810 Example 14] |
| 0.09 | CCOCCn1nc(CC)c2nc(N3CCN[C@H](C)C3)nc(Nc3ccncn3)c21 [WO2004096810 Example 15] |
| 0.98 | CCOCCn1nc(CC)c2nc(N3CCN[C@@H](C)C3)nc(Nc3ccncn3)c21 [WO2004096810 Example 16] |
| 22.4 | CCOCCn1nc(CC)c2nc(N3CCN[C@H](C(C)C)C3)nc(Nc3ccncn3)c21 [WO2004096810 Example 17] |
| 25.8 | CCOCCn1nc(CC)c2nc(N3CCN[C@@H](C(C)C)C3)nc(Nc3ccncn3)c21 [WO2004096810 Example 18] |
| 0.49 | CCOCCn1nc(CC)c2nc(N3CCN[C@H](CC)C3)nc(Nc3ccncn3)c21 [WO2004096810 Example 19] |
| 2.04 | CCOCCn1ncc2nc(N3CCN[C@H](C)C3)nc(Nc3ccncn3)c21 [WO2004096810 Example 21] |
| 0.39 | CCCOCCn1nc(C)c2nc(N3CCN[C@H](C)C3)nc(Nc3ccncn3)c21 [WO2004096810 Example 23] |
| 37.7 | Cc1nn(C(C)C)c2c(Nc3ccncn3)nc(N3CCN[C@H](C)C3)nc12 [WO2004096810 Example 24] |
| 1.83 | CCOCCn1nc(C)c2nc(N3CCN[C@H](C)C3)nc(Nc3cc(C)ncn3)c21 [WO2004096810 Example 26] |
| 47.9 | CCOCCn1nc(CC)c2nc(N3CCN[C@H](C)C3)nc(N(C)c3ccncn3)c21 [WO2004096810 Example 28] |
| 50.2 | CCCc1nn(C)c2c(Nc3ccc(C)cn3)nc(N3CCNCC3)nc12 [WO2004096810 Example 34] |

| IC50 [nM] | Structure (SMILES) |
| --- | --- |
| 737 | CCCc1nn(C)c2c(Nc3ccc(C)cn3)nc(N3CCC(O)CC3)nc12 [WO2004096810 Example 35] |
| 1450 | CCCc1nn(C)c2c(Nc3ccc(C)cn3)nc(N3CCCCC3)nc12 [WO2004096810 Example 36] |
| > 10000 | CCCc1nn(C)c2c(Nc3ccc(C)cn3)nc(NC3CNC3)nc12 [WO2004096810 Example 37] |
| > 10000 | CCCc1nn(C)c2c(Nc3ccc(C)cn3)nc(N(C)C3CNC3)nc12 [WO2004096810 Example 38] |
| 456 | CCCc1nn(C)c2c(Nc3cc(C)ccn3)nc(N3CCN[C@@H](C)C3)nc12 [WO2004096810 Example 39] |
| 334 | CCCc1nn(C)c2c(Nc3cc(C)ccn3)nc(N3CCN[C@H](C)C3)nc12 [WO2004096810 Example 40] |
| 152 | CCCc1nn(C)c2c(Nc3cc(C)ccn3)nc(NCc3ccc(OC)cc3)nc12 [WO2004096810 Example 71] |
| 177 | CCCc1nn(C)c2c(Nc3cc(C)ccn3)nc(NCCOC)nc12 [WO2004096810 Example 72] |
| > 10000 | CCCc1nn(C)c2c(Nc3cc(C)ccn3)nc(N)nc12 [WO2004096810 Example 77] |
| 1940 | CCCc1nn(C)c2c(Nc3ccncn3)nc(N3CCN(C)CC3)nc12 [WO2004096810 Example 80] |
| 118 | CCCc1nn(C)c2c(Nc3ccncn3)nc(N3CCN[C@@H](C)C3)nc12 [WO2004096810 Example 81] |
| 134 | CCCc1nn(C)c2c(Nc3cc(OC)ncn3)nc(N3CCNCC3)nc12 [WO2004096810 Example 83] |
| 247 | CCCc1nn(C)c2c(Nc3cc(OC)ncn3)nc(NC)nc12 [WO2004096810 Example 84] |
| > 100 | CCCc1nn(C)c2c(Nc3cccnn3)nc(N3CCNCC3)nc12 [WO2004096810 Example 88] |
| 1550 | CCCc1nn(C)c2c(Nc3ncc[nH]3)nc(NC)nc12 [WO2004096810 Example 90] |
| 22.6 | CCCc1nn(C)c2c(Nc3ccncn3)nc(N3CCN[C@H](C)C3)nc12 [WO2004096810 Example 91] |
| 26.5 | COCCCn1nc(C)c2nc(N(C)CCO)nc(Nc3cc(C)ccn3)c21 [WO2004096810 Example 92] |
| 31.1 | COCCNc1nc(Nc2cc(C)ccn2)c2c(n1)c(C)nn2CCOC [WO2004096810 Example 93] |
| 43.2 | CCc1nn(CCOC)c2c(Nc3cc(C)ccn3)nc(N3CCC(O)CC3)nc12 [WO2004096810 Example 94] |
| 76 | COCCn1nc(C)c2nc(N3CC[C@H](OC)C3)nc(Nc3cc(C)ccn3)c21 [WO2004096810 Example 95] |

| IC50 [nM] | Structure (SMILES) |
| --- | --- |
| 87.9 | COCCCn1nc(C)c2nc(NCCO)nc(Nc3cc(C)ccn3)c21 [WO2004096810 Example 96] |
| 231 | CCc1nn(CCOC)c2c(Nc3cc(C)ccn3)nc(NC[C@@H]3CCCN3)nc12 [WO2004096810 Example 98] |
| 239 | CNc1nc(Nc2cc(C)ccn2)c2c(n1)c(C)nn2CCCOC [WO2004096810 Example 99] |
| 67.2 | COCCCn1nc(C)c2nc(N3CC[C@@H](O)C3)nc(Nc3cc(C)ccn3)c21 [WO2004096810 Example 100] |
| 76.6 | CCc1nn(CCOC)c2c(Nc3ccc(C)cn3)nc(NCCCO)nc12 [WO2004096810 Example 103] |
| 778 | CCc1nn(CCOC)c2c(Nc3ccc(C)cn3)nc(N3CCOCC3)nc12 [WO2004096810 Example 108] |
| 27.3 | CCc1nn(CCOC)c2c(Nc3ccccn3)nc(N(C)CCO)nc12 [WO2004096810 Example 109] |
| 513 | CCc1nn(CCOC)c2c(Nc3ccc(F)cn3)nc(NCCOC)nc12 [WO2004096810 Example 110] |
| 1250 | CCCc1nn(C)c2c(Nc3ccc(C)cn3)nc(N3CCN(C)CC3)nc12 [WO2004096810 Example 113] |
| 60.6 | COCCCn1nc(C)c2nc(N[C@@H](C)CO)nc(Nc3cc(C)cc(C)n3)c21 [WO2004096810 Example 114] |
| 220 | CCc1nn(CCOC)c2c(Nc3cc(C)n[nH]3)nc(NCCn3cccn3)nc12 [WO2004096810 Example 115] |
| 1760 | COCCCn1nc(C)c2nc(N3CCNCC3)nc(Nc3cc(C)n[nH]3)c21 [WO2004096810 Example 116] |
| 248 | CCCc1nn(C)c2c(Nc3ccc(CC)cn3)nc(N3CCNCC3)nc12 [WO2004096810 Example 123] |
| 78.2 | CCCc1nn(C)c2c(NC3CCCCC3)nc(N3CCNCC3)nc12 [WO2004096810 Example 124] |
| 182 | CCCc1nn(C)c2c(Nc3cc(C)cc(C)n3)nc(N3CCNCC3)nc12 [WO2004096810 Example 125] |
| 2230 | CCCc1nn(C)c2c(N[C@H]3CC[C@H](O)CC3)nc(N3CCNCC3)nc12 [WO2004096810 Example 126] |
| 7580 | CCCc1nn(C)c2c(NC3CCC(OC)CC3)nc(N3CCNCC3)nc12 (stereo not drawn) [WO2004096810 Example 127] |
| 1390 | CCCc1nn(C)c2c(Nc3cccc(C(=O)NC)n3)nc(N3CCNCC3)nc12 [WO2004096810 Example 128] |
| 139 | CCCc1nn(C)c2c(NC3CCCC3)nc(N3CCNCC3)nc12 [WO2004096810 Example 129] |

| Structure (SMILES) | IC50 [nM] |
| --- | --- |
| CCCc1nn(C)c2c(N(C)C3CCN(C)CC3)nc(NC)nc12 [WO2004096810 Example 130] | > 10000 |
